According to patent US20110053897A1 (IRM LLC, priority 2009, published 2011):
Read-outs that look alike come from different tables or passages of the source.

Target: T1, Syk kinase (Homo sapiens, UniProt P43405)
T1 construct: purchased
Assay: Syk kinase inhibition, Caliper LabChip off-chip mobility-shift kinase assay
Format: biochemical
Conditions: read-out: Syk Enzyme IC50
Procedure: Compounds of the examples and Table 1 provided herein were assayed to measure their capacity to inhibit Syk kinase.
Compounds of the examples and Table 1 provided herein were assessed for their ability to inhibit Syk kinase by utilizing Caliper Life Sciences' proprietary LabChip™ technology. The off-chip incubation mobility-shift kinase assay uses a microfluidic chip to measure the conversion of a fluorescent peptide substrate to a phosphorylated product. The reaction mixture, from a microtiter plate well, is introduced through a capillary sipper onto the chip, where the nonphosphorylated substrate and phosphorylated product are separated by electrophoresis and detected via laser induced fluorescence. […] The phosphorylated product migrates through the chip faster than the non-phosphorylated substrate, and signals from the two forms of the peptide appear as distinct peaks. Caliper's data analysis software (HTSWA) determines peak heights, from which the ratio of product to the peak sum P/(P+S) and percent (%) conversion is calculated. This value is used to compare compound wells to control wells present on the plate, and thereby determine the % inhibition values for the compound. The formula used to calculate % inhibition is as follows, where C100% is the average % conversion of the 100% activity wells and Co% is the average % conversion of the 0% activity wells: (1−(% conversionofsample−C0%)/(C100%−C0%))*100.
Compounds (10 mM stocks in 100% DMSO) are diluted to a final concentration of 5 μM for single point inhibition experiments, and a series dilution of 10, 3, 1, 0.3, 0.1, 0.03, 0.01, 0.003, 0.001, 0.0003, 0.0001, and 0.00003 μM were made for IC50 determination. Generally, 12 μL of enzyme buffer containing purified kinase (various amount; various suppliers), 100 mM HEPES, pH 7.5, 1 mM DTT (Calbiochem, 2333153), 10 mM MgCl2 (Sigma, M-1028) or 10 mM MnCl2 (Sigma, M-1787) (assay specific), and 0.002% Brij-35 (Sigma, B4184) are added to each well. Compound and enzyme are allowed to pre-incubate for 15 minutes. 12 μL of peptide/ATP buffer containing 100 mM HEPES, pH 7.5, 1.5 μM fluorescein-labeled peptide (specific to kinase of interest), ATP (at KM apparent, Sigma, A9187), and 0.002% Brij-35 is then added to each well to initiate the reaction. The final concentration of DMSO in the well is 4%. Generally, reactions are incubated for 1 to 1.5 hours at room temperature to obtain adequate conversion of peptide to phosphorylated product in the linear range of the reaction. Reactions are terminated with the addition of 45 μL of Stop Buffer (containing 20 mM EDTA). Plates are then read on the LabChip 3000 using a 12-sipper LabChip. % conversion values and % inhibition values are obtained as provided and IC50 curves of compounds are generated using GraphPad Prism Version 4 or 5.01, or XLfit Version 4.3.2. When using GraphPad Prism, a nonlinear curve fit using the sigmoidal dose response—variable slope fit was used to graph IC50 curves and determine IC50 values and hillslopes. When using XLfit, Fit Model 205 (4-Parameter Logistic Model) is used to generate and fit the IC50 curve.

Nc1ncc(-c2cc3ccn(CC4(CO)COC4)c(=O)c3c(NC3CCCC3)n2)cn1 [compound 761]
IC50 (Caliper LabChip assay): 66 nM

COc1cncc(-c2cc3cc[nH]c(=O)c3c(Nc3ccc(C4CCN(C(=O)[C@H](C)OC)CC4)c(C)c3)n2)n1 [compound 58]
IC50: 40 nM

CC(C)(C)Nc1nc(Nc2cnccn2)cc2ccn(CCCO)c(=O)c12 [compound 1034]
IC50 (Caliper LabChip assay): 12 nM

CCn1ccc2cc(Nc3cnccn3)nc(N[C@@H]3CC[C@H](CO)C3)c2c1=O [compound 795]
IC50 (Caliper LabChip assay): 51 nM

CCn1ccc2cc(Nc3nccc(O)n3)nc(NC[C@@H]3CC[C@@H](O)C3)c2c1=O [compound 959]
IC50 (Caliper LabChip assay): 41 nM

Cc1ccc(Nc2cc3cc[nH]c(=O)c3c(Nc3ccc(C4CCN(C5CC5)CC4)c(C)c3)n2)nc1 [compound 249]
IC50: 1590 nM

CCC(C)(C)Nc1nc(-c2cnc(N)nc2)cc2cc[nH]c(=O)c12 [compound 454]
IC50: 281 nM

COCCOc1cc(Nc2cc3ccn(CC(O)CO)c(=O)c3c(NC(C)(C)C)n2)ncn1 (stereo not shown) [compound 885]
IC50 (Caliper LabChip assay): 78 nM

Cc1ccc(-c2cc3cc[nH]c(=O)c3c(Nc3ccc(C4CN(C)C4)cc3)n2)cn1 [compound 140]
IC50: 27 nM

CCN1CCN(c2n[nH]c3cc(Nc4nc(-c5cnc(OC)nc5)cc5cc[nH]c(=O)c45)ccc23)CC1 [compound 201]
IC50: 70 nM

CC(C)(C)Nc1nc(Nc2cc(C(C)(C)O)ncn2)cc2ccn(CCS(C)(=O)=O)c(=O)c12 [compound 739]
IC50 (Caliper LabChip assay): 35 nM

O=c1[nH]ccc2cc(-c3cncnc3)nc(Nc3ccc(CCn4cncn4)cc3)c12 [compound 34]
IC50: 180 nM

Nc1ncc(-c2cc3cc[nH]c(=O)c3c(NCC(F)(F)F)n2)cn1 [compound 450]
IC50: 117 nM

Cc1cc(Nc2nc(-c3cncc(NC4CC4)n3)cc3cc[nH]c(=O)c23)ccc1C1CCN(CCC#N)CC1 [compound 68]
IC50: 89 nM

Cc1ccc(Nc2cc3cc[nH]c(=O)c3c(Nc3ccc(CCN4CCCN(C)CC4)cc3)n2)nc1 [compound 552]
IC50: 390 nM

CN(C)CCNC(=O)c1ccnc(Nc2cc3ccn(CCO)c(=O)c3c(NC(C)(C)C)n2)c1 [compound 683]
IC50 (Caliper LabChip assay): 595 nM

Cc1ccnc(Nc2cc3ccn(CCN4CCOCC4)c(=O)c3c(N[C@@H](C)CO)n2)c1 [compound 995]
IC50 (Caliper LabChip assay): 53 nM

CCOCCc1cc2cc[nH]c(=O)c2c(Nc2ccc(C3CCN(C4CC4)CC3)c(C)c2)n1 [compound 227]
IC50: 398 nM

CC(C)n1ccc2cc(Nc3cc(C(C)(C)O)ccn3)nc(N[C@H]3CC[C@@H](O)CC3)c2c1=O [compound 706]
IC50 (Caliper LabChip assay): 55 nM

COc1cncc(-c2cc3cc[nH]c(=O)c3c(Nc3ccc(C4CCN(C(=O)C5(C)COC5)CC4)c(C)c3)n2)n1 [compound 75]
IC50: 53 nM

COCCN1CCC(c2cc3cc[nH]c(=O)c3c(Nc3ccc(N4CCOCC4)cc3)n2)CC1 [compound 9]
IC50: 299 nM

CCOCCc1cc2cc[nH]c(=O)c2c(Nc2ccc(N3CCO[C@H](C)C3)c(C)c2)n1 [compound 222]
IC50: 243 nM

COCCNc1nc(-c2cnc(N)nc2)cc2cc[nH]c(=O)c12 [compound 447]
IC50: 101 nM

CC(C)(C)Nc1nc(Nc2cnccn2)cc2ccn(CC(N)=O)c(=O)c12 [compound 662]
IC50 (Caliper LabChip assay): 17 nM

CC(C)(C)Nc1nc(Nc2cc(-c3ccccc3)ccn2)cc2ccn(CCO)c(=O)c12 [compound 829]
IC50 (Caliper LabChip assay): 271 nM

CC(C)(C)Nc1nc(Nc2cc(CNC3COC3)ccn2)cc2ccn(CCO)c(=O)c12 [compound 605]
IC50 (Caliper LabChip assay): 216 nM

Cn1ccc2cc(Nc3nccc(O)n3)nc(Nc3ccc(C(=O)N4CCOCC4)cc3)c2c1=O [compound 805]
IC50 (Caliper LabChip assay): 752 nM

Cc1ccnc(Nc2cc3ccn(CCO)c(=O)c3c(N[C@@H](C)CO)n2)c1 [compound 367]
IC50: 13 nM

Cc1n[nH]c2ncc(-c3cc4cc[nH]c(=O)c4c(Nc4ccc(N5CCOCC5)cc4)n3)cc12 [compound 192]
IC50: 263 nM

O=c1[nH]ccc2cc(C3CCOCC3)nc(Nc3ccc(N4CCOCC4)cc3)c12 [compound 87]
IC50: 58 nM

CC1(Nc2nc(Nc3cc(C(C)(C)O)ccn3)cc3ccn(CC(N)=O)c(=O)c23)CC1 [compound 724]
IC50 (Caliper LabChip assay): 203 nM
